Experimental data: the kinase profiling compilation of Christmann-Franck et al. (2016)

How the values were obtained:
Assay in all cases: radiometric filter-binding kinase assay
PHKG1 (human) = PHKG1 (human) (UniProt Q16816)
LCK (mouse) = details: compound 1.0 µM; accession and sequence are those of the human protein
INSRR (human) = INSRR (human) (UniProt P14616)
[1] = biological target: STK11 CAB39 STRADA (human) (UniProt Q9Y376+Q7RTN6+Q15831)
CSNK2A1 (human) = CSNK2A1 (human) (UniProt P68400)
TTK (human) = TTK (human) (UniProt P33981)
PIM3 (human) = PIM3 (human) (UniProt Q86V86)
MARK2 (human) = MARK2 (human) (UniProt Q7KZI7)
MKNK1 (human) = MKNK1 (human) (UniProt Q9BUB5)
EPHB1 (human) = EPHB1 (human) (UniProt P54762)
MAPK10 (human) = MAPK10 (human) (UniProt P53779)
[2] = system: RPS6KB1 (human), P23443 [T412E]
Chain of RPS6KB1 (human), P23443 [T412E] (P23443 whole entry T412E, looked up): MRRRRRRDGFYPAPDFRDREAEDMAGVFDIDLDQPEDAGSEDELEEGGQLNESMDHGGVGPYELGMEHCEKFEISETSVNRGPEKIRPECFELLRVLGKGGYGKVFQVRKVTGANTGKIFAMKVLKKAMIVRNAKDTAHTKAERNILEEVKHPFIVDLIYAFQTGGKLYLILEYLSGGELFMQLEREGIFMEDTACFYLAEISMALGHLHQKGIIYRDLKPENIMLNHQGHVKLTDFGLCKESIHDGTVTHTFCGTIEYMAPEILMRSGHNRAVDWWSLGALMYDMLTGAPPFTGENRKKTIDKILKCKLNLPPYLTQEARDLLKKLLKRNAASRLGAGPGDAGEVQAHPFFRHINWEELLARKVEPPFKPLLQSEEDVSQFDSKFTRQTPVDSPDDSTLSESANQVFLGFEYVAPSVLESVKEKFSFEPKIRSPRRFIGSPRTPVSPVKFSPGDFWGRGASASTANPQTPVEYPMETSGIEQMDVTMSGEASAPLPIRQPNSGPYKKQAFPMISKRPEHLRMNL

MAP2K6 (human) = MAP2K6 (human) (UniProt P52564)
INSR (human) = INSR (human) (UniProt P06213); details: compound 0.1 µM
TBK1 (human) = TBK1 (human) (UniProt Q9UHD2)
MAPK13 (human) = MAPK13 (human) (UniProt O15264)
Chain of MAPK13 (human) (O15264 whole entry, looked up): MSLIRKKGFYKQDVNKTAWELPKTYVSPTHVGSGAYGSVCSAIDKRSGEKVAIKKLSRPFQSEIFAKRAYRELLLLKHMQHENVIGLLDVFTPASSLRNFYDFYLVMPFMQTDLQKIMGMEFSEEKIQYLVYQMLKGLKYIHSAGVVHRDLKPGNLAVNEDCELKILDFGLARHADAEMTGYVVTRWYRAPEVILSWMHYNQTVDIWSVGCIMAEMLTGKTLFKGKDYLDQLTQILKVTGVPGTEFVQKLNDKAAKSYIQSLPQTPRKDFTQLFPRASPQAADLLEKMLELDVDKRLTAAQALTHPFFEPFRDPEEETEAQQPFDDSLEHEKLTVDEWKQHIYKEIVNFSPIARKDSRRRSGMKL

PKN2 (human) = PKN2 (human) (UniProt Q16513)
IRAK4 (human) = IRAK4 (human) (UniProt Q9NWZ3)
FGFR1 (human) = FGFR1 (human) (UniProt P11362)
Chain of FGFR1 (human) (P11362 whole entry, looked up): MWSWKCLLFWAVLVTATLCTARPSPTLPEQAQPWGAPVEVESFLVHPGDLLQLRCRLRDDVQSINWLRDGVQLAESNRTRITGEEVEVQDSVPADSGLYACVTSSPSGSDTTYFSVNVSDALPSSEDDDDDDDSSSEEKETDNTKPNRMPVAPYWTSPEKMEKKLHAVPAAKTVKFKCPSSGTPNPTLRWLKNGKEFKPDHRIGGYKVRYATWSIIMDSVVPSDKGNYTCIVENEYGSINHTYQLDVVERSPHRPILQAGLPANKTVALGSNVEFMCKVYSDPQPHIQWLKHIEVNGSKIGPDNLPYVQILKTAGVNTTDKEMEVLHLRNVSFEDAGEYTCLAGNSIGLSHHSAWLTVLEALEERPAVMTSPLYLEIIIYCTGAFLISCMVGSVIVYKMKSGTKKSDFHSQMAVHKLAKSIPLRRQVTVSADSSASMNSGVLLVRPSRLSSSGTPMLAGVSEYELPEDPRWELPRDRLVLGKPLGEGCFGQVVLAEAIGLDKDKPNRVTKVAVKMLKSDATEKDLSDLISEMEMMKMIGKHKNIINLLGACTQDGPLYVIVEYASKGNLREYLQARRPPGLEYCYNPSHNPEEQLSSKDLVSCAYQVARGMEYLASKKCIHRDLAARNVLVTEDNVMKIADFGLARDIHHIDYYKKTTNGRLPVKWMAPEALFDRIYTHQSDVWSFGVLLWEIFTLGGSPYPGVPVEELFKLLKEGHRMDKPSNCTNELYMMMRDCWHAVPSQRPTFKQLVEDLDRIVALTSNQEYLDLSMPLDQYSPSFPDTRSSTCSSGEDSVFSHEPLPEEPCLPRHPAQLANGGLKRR

[3] = system: PAK2 (human), Q13177 [T402E]
ROCK2 (rat) = details: accession and sequence are those of the human protein
GSK3B (human) = GSK3B (human) (UniProt P49841)
Chain of GSK3B (human) (P49841 whole entry, looked up): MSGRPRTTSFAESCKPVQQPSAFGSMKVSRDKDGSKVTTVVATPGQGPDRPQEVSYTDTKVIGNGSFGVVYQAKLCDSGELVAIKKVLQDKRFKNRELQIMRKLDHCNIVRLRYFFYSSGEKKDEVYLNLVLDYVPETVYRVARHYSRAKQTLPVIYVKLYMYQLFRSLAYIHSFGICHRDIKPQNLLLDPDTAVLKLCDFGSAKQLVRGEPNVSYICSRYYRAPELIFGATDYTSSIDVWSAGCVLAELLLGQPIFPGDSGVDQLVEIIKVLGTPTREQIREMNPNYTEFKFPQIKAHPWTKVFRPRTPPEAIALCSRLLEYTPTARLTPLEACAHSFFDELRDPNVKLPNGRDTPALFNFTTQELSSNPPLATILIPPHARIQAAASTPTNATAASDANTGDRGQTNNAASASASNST

NEK2 (human) = NEK2 (human) (UniProt P51955)
Chain of NEK2 (human) (P51955 whole entry, looked up): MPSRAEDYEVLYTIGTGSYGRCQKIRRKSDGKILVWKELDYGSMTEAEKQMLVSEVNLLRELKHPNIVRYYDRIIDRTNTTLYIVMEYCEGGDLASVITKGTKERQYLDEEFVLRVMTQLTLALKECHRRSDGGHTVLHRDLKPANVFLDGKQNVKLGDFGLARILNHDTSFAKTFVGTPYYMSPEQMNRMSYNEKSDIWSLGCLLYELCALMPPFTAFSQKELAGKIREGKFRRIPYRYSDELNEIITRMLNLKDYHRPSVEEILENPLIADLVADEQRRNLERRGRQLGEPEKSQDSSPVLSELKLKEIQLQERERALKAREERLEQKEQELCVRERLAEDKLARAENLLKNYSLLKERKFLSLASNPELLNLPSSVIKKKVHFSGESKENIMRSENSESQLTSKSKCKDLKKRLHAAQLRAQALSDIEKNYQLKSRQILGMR

MAP2K1 (human) = MAP2K1 (human) (UniProt Q02750)
Chain of MAP2K1 (human) (Q02750 whole entry, looked up): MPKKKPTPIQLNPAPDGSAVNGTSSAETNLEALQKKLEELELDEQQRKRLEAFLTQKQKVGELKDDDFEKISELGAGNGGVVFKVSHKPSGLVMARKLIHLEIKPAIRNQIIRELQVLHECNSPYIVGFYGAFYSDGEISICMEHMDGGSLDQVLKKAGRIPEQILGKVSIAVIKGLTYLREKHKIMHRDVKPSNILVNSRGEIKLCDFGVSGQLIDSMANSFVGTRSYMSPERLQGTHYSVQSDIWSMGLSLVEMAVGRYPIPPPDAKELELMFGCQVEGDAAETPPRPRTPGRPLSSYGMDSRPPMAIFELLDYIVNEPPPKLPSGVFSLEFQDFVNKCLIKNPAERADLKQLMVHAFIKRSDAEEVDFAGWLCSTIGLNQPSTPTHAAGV

PIM2 (human) = PIM2 (human) (UniProt Q9P1W9)
SRPK1 (human) = SRPK1 (human) (UniProt Q96SB4)
MAP3K9 (human) = MAP3K9 (human) (UniProt P80192)
EPHA2 (human) = EPHA2 (human) (UniProt P29317)
DYRK3 (human) = DYRK3 (human) (UniProt O43781)
MYLK (human) = MYLK (human) (UniProt Q15746)
[4] = system: AKT2 (human), P31751 [S474D]
MAPK11 (human) = MAPK11 (human) (UniProt Q15759)
Chain of MAPK11 (human) (Q15759 whole entry, looked up): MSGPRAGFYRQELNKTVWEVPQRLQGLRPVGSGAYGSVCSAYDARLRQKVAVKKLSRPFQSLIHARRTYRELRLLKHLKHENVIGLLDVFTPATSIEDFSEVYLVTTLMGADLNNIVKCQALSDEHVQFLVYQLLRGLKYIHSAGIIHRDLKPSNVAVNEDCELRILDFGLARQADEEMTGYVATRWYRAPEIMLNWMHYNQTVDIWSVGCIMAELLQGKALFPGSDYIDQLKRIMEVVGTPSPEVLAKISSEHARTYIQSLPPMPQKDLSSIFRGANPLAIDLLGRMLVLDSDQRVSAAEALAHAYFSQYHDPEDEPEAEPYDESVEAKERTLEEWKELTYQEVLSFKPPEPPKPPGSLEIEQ

[5] = system: AKT1 (human), P31749 [S473D]
NEK6 (human) = NEK6 (human) (UniProt Q9HC98)
Chain of NEK6 (human) (Q9HC98 whole entry, looked up): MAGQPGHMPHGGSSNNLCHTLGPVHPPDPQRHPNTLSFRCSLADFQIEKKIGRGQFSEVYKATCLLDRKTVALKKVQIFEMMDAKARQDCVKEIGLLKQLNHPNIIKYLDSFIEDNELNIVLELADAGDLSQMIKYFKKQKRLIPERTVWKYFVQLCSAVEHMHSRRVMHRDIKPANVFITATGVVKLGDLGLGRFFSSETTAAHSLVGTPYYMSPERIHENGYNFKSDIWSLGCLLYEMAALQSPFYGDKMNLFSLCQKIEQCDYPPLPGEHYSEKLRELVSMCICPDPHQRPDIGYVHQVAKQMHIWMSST

MARK1 (human) = MARK1 (human) (UniProt Q9P0L2)
SYK (human) = SYK (human) (UniProt P43405)

Chain of PHKG1 (human) (Q16816 whole entry, looked up): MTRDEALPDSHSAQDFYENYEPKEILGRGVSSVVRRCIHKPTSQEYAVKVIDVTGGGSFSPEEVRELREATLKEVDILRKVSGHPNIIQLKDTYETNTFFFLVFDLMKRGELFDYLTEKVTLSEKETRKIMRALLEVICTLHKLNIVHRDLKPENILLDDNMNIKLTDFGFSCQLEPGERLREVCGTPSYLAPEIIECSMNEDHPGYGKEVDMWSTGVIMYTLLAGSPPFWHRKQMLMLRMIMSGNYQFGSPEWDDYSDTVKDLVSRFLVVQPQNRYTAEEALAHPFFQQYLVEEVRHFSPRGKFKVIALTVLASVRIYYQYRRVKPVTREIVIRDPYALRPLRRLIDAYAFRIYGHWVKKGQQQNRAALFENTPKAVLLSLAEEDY
Chain of CSNK2A1 (human) (P68400 whole entry, looked up): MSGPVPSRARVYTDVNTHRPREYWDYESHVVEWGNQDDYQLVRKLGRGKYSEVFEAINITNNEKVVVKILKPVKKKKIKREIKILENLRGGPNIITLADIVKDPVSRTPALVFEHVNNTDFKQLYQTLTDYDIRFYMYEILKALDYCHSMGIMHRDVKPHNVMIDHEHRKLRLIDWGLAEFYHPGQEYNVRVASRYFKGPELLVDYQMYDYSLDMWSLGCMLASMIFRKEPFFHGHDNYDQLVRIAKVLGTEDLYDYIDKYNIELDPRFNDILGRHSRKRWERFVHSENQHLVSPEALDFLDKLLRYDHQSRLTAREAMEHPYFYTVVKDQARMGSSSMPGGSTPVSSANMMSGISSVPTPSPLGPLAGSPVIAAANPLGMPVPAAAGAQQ

Compound: Cc1ccc(-c2ccc3c(ccc4sc5c(c43)NC[C@@H](C)NC5=O)n2)cn1
- residual activity (PHKG1 (human); compound 0.1 µM): 110%
- residual activity (PHKG1 (human); compound 1.0 µM): 91%
- residual activity (PHKG1 (human); compound 10.0 µM): 86%
- residual activity (LCK (mouse)): 95%
- residual activity (INSRR (human); compound 0.1 µM): 99%
- residual activity (INSRR (human); compound 1.0 µM): 79%
- residual activity (INSRR (human); compound 10.0 µM): 53%
- residual activity ([1]; compound 0.1 µM): 118%
- residual activity ([1]; compound 1.0 µM): 103%
- residual activity ([1]; compound 10.0 µM): 97%
- residual activity (CSNK2A1 (human); compound 0.1 µM): 100%
- residual activity (CSNK2A1 (human); compound 1.0 µM): 97%
- residual activity (CSNK2A1 (human); compound 10.0 µM): 93%
- residual activity (TTK (human); compound 0.1 µM): 117%
- residual activity (TTK (human); compound 1.0 µM): 101%
- residual activity (TTK (human); compound 10.0 µM): 84%
- residual activity (PIM3 (human); compound 0.1 µM): 55%
- residual activity (PIM3 (human); compound 1.0 µM): 18%
- residual activity (PIM3 (human); compound 10.0 µM): 3%
- residual activity (MARK2 (human); compound 0.1 µM): 116%
- residual activity (MARK2 (human); compound 1.0 µM): 113%
- residual activity (MARK2 (human); compound 10.0 µM): 95%
- residual activity (MKNK1 (human); compound 0.1 µM): 105%
- residual activity (MKNK1 (human); compound 1.0 µM): 103%
- residual activity (MKNK1 (human); compound 10.0 µM): 83%
- residual activity (EPHB1 (human); compound 0.1 µM): 113%
- residual activity (EPHB1 (human); compound 1.0 µM): 106%
- residual activity (EPHB1 (human); compound 10.0 µM): 106%
- residual activity (MAPK10 (human); compound 0.1 µM): 120%
- residual activity (MAPK10 (human); compound 1.0 µM): 104%
- residual activity (MAPK10 (human); compound 10.0 µM): 102%
- residual activity ([2]; compound 0.1 µM): 99%
- residual activity ([2]; compound 1.0 µM): 95%
- residual activity ([2]; compound 10.0 µM): 80%
- residual activity (MAP2K6 (human); compound 0.1 µM): 95%
- residual activity (MAP2K6 (human); compound 10.0 µM): 91%
- residual activity (INSR (human)): 123%
- residual activity (TBK1 (human); compound 0.1 µM): 110%
- residual activity (TBK1 (human); compound 1.0 µM): 87%
- residual activity (TBK1 (human); compound 10.0 µM): 96%
- residual activity (MAPK13 (human); compound 0.1 µM): 108%
- residual activity (MAPK13 (human); compound 1.0 µM): 103%
- residual activity (MAPK13 (human); compound 10.0 µM): 94%
- residual activity (PKN2 (human); compound 0.1 µM): 108%
- residual activity (PKN2 (human); compound 1.0 µM): 101%
- residual activity (PKN2 (human); compound 10.0 µM): 81%
- residual activity (IRAK4 (human); compound 0.1 µM): 94%
- residual activity (IRAK4 (human); compound 1.0 µM): 62%
- residual activity (IRAK4 (human); compound 10.0 µM): 24%
- residual activity (FGFR1 (human); compound 0.1 µM): 95%
- residual activity (FGFR1 (human); compound 1.0 µM): 91%
- residual activity (FGFR1 (human); compound 10.0 µM): 68%
- residual activity ([3]; compound 0.1 µM): 102%
- residual activity ([3]; compound 1.0 µM): 103%
- residual activity ([3]; compound 10.0 µM): 93%
- residual activity (ROCK2 (rat); compound 0.1 µM): 112%
- residual activity (ROCK2 (rat); compound 1.0 µM): 96%
- residual activity (ROCK2 (rat); compound 10.0 µM): 95%
- residual activity (GSK3B (human); compound 0.1 µM): 126%
- residual activity (GSK3B (human); compound 1.0 µM): 99%
- residual activity (GSK3B (human); compound 10.0 µM): 88%
- residual activity (NEK2 (human); compound 0.1 µM): 108%
- residual activity (NEK2 (human); compound 1.0 µM): 99%
- residual activity (NEK2 (human); compound 10.0 µM): 88%
- residual activity (MAP2K1 (human); compound 0.1 µM): 101%
- residual activity (MAP2K1 (human); compound 1.0 µM): 97%
- residual activity (MAP2K1 (human); compound 10.0 µM): 69%
- residual activity (PIM2 (human); compound 0.1 µM): 103%
- residual activity (PIM2 (human); compound 1.0 µM): 103%
- residual activity (PIM2 (human); compound 10.0 µM): 66%
- residual activity (SRPK1 (human); compound 0.1 µM): 89%
- residual activity (SRPK1 (human); compound 1.0 µM): 63%
- residual activity (SRPK1 (human); compound 10.0 µM): 19%
- residual activity (MAP3K9 (human); compound 0.1 µM): 99%
- residual activity (MAP3K9 (human); compound 1.0 µM): 95%
- residual activity (EPHA2 (human); compound 0.1 µM): 90%
- residual activity (EPHA2 (human); compound 1.0 µM): 95%
- residual activity (EPHA2 (human); compound 10.0 µM): 76%
- residual activity (DYRK3 (human); compound 0.1 µM): 111%
- residual activity (DYRK3 (human); compound 10.0 µM): 40%
- residual activity (MYLK (human); compound 0.1 µM): 118%
- residual activity (MYLK (human); compound 1.0 µM): 112%
- residual activity (MYLK (human); compound 10.0 µM): 110%
- residual activity ([4]; compound 1.0 µM): 90%
- residual activity ([4]; compound 10.0 µM): 69%
- residual activity (MAPK11 (human); compound 0.1 µM): 118%
- residual activity (MAPK11 (human); compound 1.0 µM): 126%
- residual activity (MAPK11 (human); compound 10.0 µM): 117%
- residual activity ([5]; compound 0.1 µM): 109%
- residual activity ([5]; compound 1.0 µM): 97%
- residual activity ([5]; compound 10.0 µM): 98%
- residual activity (NEK6 (human); compound 0.1 µM): 109%
- residual activity (NEK6 (human); compound 1.0 µM): 96%
- residual activity (NEK6 (human); compound 10.0 µM): 66%
- residual activity (MARK1 (human); compound 0.1 µM): 116%
- residual activity (MARK1 (human); compound 1.0 µM): 107%
- residual activity (MARK1 (human); compound 10.0 µM): 93%
- residual activity (SYK (human); compound 0.1 µM): 94%
- residual activity (SYK (human); compound 10.0 µM): 82%
